Test results taken from US9642847B2, “Combinational compositions and methods for treatment of cancer” (ArQule, Inc., priority 2009, dated 2017).
“And” between values parts separate entries of the source, which are not always exact repeats. Identical values can stand only once. Like-named read-outs stand apart in the source and are kept apart here.

Experiments:
[1] = system: NCI-H441 NSCLC human tumor xenograft; test: NCI-H441 human lung tumor xenograft model; format: in vivo; conditions: for BW loss: on day 4
Procedure: Erlotinib was administered daily at 100 mg/kg or 50 mg/kg orally, five days a week for four weeks.
Gefitinib was administered daily at 50 mg/kg orally, five days a week for four weeks.

[2] = system: MKN-45 human gastric tumor xenograft; format: in vivo; conditions: for BW loss: on day 21
Procedure: 5-FU was administered daily at 10 mg/kg intravenously, five days a week for two weeks. TS-1 was administered daily at 10 mg/kg orally, five days a week for two weeks. Capecitabine was administered daily at 360 mg/kg orally, five days a week for two weeks. CDDP was administered weekly at 5 mg/kg intravenously for two weeks.

[3] = system: MIA PaCa-2 pancreatic tumor cells; test: 72 h MTT proliferation assay, equipotent fixed-ratio combination, isobologram analysis (Calcusyn)
Procedure: (§2) Cell culture and reagents: NCI-H441, PC-3, MIA PaCa-2, HeLa, HT-29 and A549 cancer cell lines (American Type Culture Collection) were cultured in Dulbecco's modified Eagle's medium containing 10% fetal bovine serum, 100 units/mL penicillin, 100 g/mL streptomycin, and 2 mM L-glutamine.
(§3) Duplicate independent experiments were performed for each cell line/drug combination. Data were then analyzed by Calcusyn™ (Biosoft, Cambridge, UK) data analysis software.
(§4) Cell survival analysis. In some experiments, cell survival was determined by the 3-(4,5-dimethylthiazol-2-yl)-2,5-diphenyl tetrazolium bromide (MTT) assay. Briefly, cells were plated in a 96-well plate at 5-10,000 cells per well, cultured for 24 hours in complete growth medium, and then treated with various drugs and drug combinations for 72 hours. […] Data were normalized to untreated controls and analyzed with Microsoft Excel.
(§5) Median effect plots and isobolograms were performed for each experiment.

[4] = system: NCI-H441 non-small cell lung cancer cells; test: 72 h MTT proliferation assay, equipotent fixed-ratio combination, isobologram analysis (Calcusyn); format: cell-based, human
Text: (§1) Erlotinib is an inhibitor of the epidermal growth factor receptor and is indicated for the treatment of patients with locally advanced or metastatic non-small cell lung cancer after failure of at least one prior chemotherapy regimen, and is indicated for the first-line treatment of patients with locally advanced, unresectable or metastatic pancreatic cancer.

[5] = system: HT29 colon cancer cells; test: as above; format: cell-based; conditions: Homo sapiens
Text: as §1
Gefitinib is an inhibitor of the EGF receptor.

[6] = system: subcutaneous NCI-H522 NSCLC tumors; conditions: for tolerability: mouse, in vivo, po
Procedure: All regimens were orally administered once daily for 21 days. Tumor sizes were evaluated periodically during treatment at the indicated days post-inoculation.

[7] = system: Hsc-39 human gastric tumor xenograft; test: Hsc-39 human gastric tumor xenograft model; format: in vivo
Procedure: (§6) Specifically, gastric cancer cell lines MKN-45 and Hsc-39 were tested.

[8] = target: T1, c-Met (Homo sapiens, UniProt P08581); test: c-Met biochemical assays
[9] = target: T1, c-Met; test: c-Met cell-based assays; conditions: a number of cell-based assays
[10] = system: MKN-45 human gastric tumor xenograft; test: MKN-45 human gastric tumor xenograft model (Example 88)
Procedure: as §6

[11] = system: PC-3 cells; test: 72 h MTT proliferation assay, equipotent fixed-ratio combination, isobologram analysis (Calcusyn)
Procedure: as §2, §3, §4, §5

[12] = system: 22RV1; test: 72 hr MTS assay, combination index by CalcuSyn; format: cell-based, human; conditions: 22RV1 (Prostate), chemotherapeutic agent combined with Agent A
[13] = system: DU-145; test: 72 hr MTS assay, combination index by CalcuSyn; format: cell-based, human; conditions: DU-145 (Prostate), chemotherapeutic agent combined with Agent A
[14] = system: AsPC-1; test: 72 hr MTS cytotoxicity assay, combination with gemcitabine; format: cell-based, human; conditions: AsPC-1 (Pancreatic), chemotherapeutic agent combined with Agent A
Procedure: (§7) MIA PaCa-2 (also referred to as PACA2), PANC-1, CFPAC-1, and Hs766T human pancreatic cell lines were maintained in DMEM supplemented with 10% fetal bovine serum (FBS), penicillin, streptomycin, and fungizone. AsPC-1 cells were maintained in RPMI supplemented with 10% FBS, penicillin, streptomycin, and fungizone. HPAF-II cells were maintained in MEM supplemented with 10% FBS, penicillin, streptomycin, and fungizone. […] MTS reagent (Promega, Madison, Wis.) was added to each well and plates were incubated for 4 hr at 37° C.

[15] = system: HPAF-II; test: as above; format: cell-based, human; conditions: HPAF-II (Pancreatic), chemotherapeutic agent combined with Agent A
Procedure: as §7

[16] = system: PANC-1; test: as above; format: cell-based, human; conditions: PANC-1 (Pancreatic), chemotherapeutic agent combined with Agent A
Procedure: as §7

[17] = Gefitinib 50 mg/kg p.o. qd × 5 × 4
[18] = Capecitabine 360 mg/kg p.o. qd × 5 × 2
[19] = Homo sapiens, NCI-H441, NCI-H441 NSCLC cells, predicted value used to set the ratio, read-out: IC50, predicted
[20] = Erlotinib 50 mg/kg p.o. qd × 5 × 4
[21] = Erlotinib 100 mg/kg p.o. qd × 5 × 4
[22] = Agent A 300 mg/kg p.o. qd × 5 × 2
[23] = Agent A 300 mg/kg p.o. qd × 5 × 2, on day 10
[24] = Homo sapiens, MIA PaCa-2, read-out: IC50, predicted, MIA PaCa-2 cells, predicted value used to set the ratio
[25] = Homo sapiens, PC-3, 72 h, PC-3, 72 h, single agents and fixed-ratio combination
[26] = Homo sapiens, PC-3, read-out: IC50, predicted, PC-3 cells, predicted value used to set the ratio

T1 sequence (P08581 25-1390): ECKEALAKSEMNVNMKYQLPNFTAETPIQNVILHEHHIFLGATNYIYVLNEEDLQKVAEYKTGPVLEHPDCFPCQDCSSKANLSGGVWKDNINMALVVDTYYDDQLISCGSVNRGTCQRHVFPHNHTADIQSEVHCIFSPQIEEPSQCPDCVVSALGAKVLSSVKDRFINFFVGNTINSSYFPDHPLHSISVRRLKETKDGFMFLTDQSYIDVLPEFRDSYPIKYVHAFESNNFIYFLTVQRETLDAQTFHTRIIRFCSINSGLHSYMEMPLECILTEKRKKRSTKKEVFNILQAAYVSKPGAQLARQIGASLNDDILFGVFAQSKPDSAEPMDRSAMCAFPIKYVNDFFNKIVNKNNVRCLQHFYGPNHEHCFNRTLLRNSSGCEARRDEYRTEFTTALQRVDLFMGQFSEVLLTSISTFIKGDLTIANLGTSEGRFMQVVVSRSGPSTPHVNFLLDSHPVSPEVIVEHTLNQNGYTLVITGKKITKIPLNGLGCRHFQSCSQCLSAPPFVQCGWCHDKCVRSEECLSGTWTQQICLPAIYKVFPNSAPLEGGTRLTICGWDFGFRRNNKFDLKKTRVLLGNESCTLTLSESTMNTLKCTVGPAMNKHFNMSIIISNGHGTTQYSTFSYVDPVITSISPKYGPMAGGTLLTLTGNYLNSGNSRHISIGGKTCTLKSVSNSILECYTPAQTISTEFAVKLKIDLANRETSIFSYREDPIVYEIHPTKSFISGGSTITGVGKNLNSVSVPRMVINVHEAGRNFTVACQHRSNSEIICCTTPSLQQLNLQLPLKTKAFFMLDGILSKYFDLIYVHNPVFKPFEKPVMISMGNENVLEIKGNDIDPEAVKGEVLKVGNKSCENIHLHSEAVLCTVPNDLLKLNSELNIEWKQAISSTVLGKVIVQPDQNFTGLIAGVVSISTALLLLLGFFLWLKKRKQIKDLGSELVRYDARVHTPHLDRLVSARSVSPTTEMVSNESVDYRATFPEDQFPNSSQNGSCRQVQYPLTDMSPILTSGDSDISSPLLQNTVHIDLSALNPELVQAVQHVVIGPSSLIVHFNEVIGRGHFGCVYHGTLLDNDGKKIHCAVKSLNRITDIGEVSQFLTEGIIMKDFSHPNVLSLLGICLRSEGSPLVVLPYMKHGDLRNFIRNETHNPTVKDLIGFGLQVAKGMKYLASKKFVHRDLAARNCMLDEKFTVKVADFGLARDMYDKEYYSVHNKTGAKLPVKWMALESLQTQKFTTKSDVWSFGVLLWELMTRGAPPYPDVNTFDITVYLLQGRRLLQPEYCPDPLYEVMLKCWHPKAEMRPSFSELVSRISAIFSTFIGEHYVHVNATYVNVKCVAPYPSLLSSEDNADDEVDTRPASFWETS

In the case of `COc1cc2ncnc(Nc3ccc(F)c(Cl)c3)c2cc1OCCCN1CCOCC1` [Gefitinib, gefitinib], the Mortality [1, 17] is reported as 0/5, the BW loss [1, 17] is reported as −0.5 (4) g and the “T/C Min” value ([1]; Gefitinib 50 mg/kg p.o. qd × 5 × 4, on day 21) is reported as 0.60 (21).
With `N.N.[Cl][Pt][Cl]` [Cisplatin, cisplatin] the Mortality ([2]; Cisplatin 5 mg/kg i.v. Weekly × 2) was 0/5, the “T/C Min” value ([2]; Cisplatin 5 mg/kg i.v. Weekly × 2, on day 10) was 0.55 (10) and the IC50 ([3]; MIA PaCa-2, 72 h, single agents and fixed-ratio combination) was 3.37 µM and 3.79 µM.
Work on `O=C1NC(=O)[C@@H](c2cn3c4c(cccc24)CCC3)[C@@H]1c1cccc(O)c1` (racemic) [Example 69, (±)-Trans-3-(5,6-dihydro-4H-pyrrolo[3,2,1-ij]quinolin-1-yl)-4-(3-hydroxyphenyl)pyrrolidine-2,5-dione] yielded a melting point of 108 to 110 °C.
In the case of `CCCCCOC(=O)Nc1nc(=O)n([C@@H]2O[C@H](C)[C@@H](O)[C@H]2O)cc1F` [Capecitabine, capecitabine], the Mortality [2, 18] is reported as 0/5, the “T/C Min” value ([2]; Capecitabine 360 mg/kg p.o. qd × 5 × 2, on day 14) is reported as 0.42 (14) and the BW loss [2, 18] is reported as −1.4 (21) g.
Compound `C#Cc1cccc(Nc2ncnc3cc(OCCOC)c(OCCOC)cc23)c1` [Erlotinib, erlotinib] has an IC50 ([4]; Homo sapiens, NCI-H441, 72 h, NCI-H441, 72 h, single agents and fixed-ratio combination, read-out: IC50) of 3.56 µM, an IC50 [4, 19] of about 1 µM and an IC50 ([4]; NCI-H441, 72 h, single agents and fixed-ratio combination, read-out: IC50) of 3.16 µM. The IC50 ([5]; HT-29, HT29, 72 h, single agents and fixed-ratio combination, read-out: IC50) was 56.3 µM, the Mortality [1, 20] was 0/5 and the BW loss [1, 20] was −0.6 (4) g. For the same compound, the “T/C Min” value ([1]; Erlotinib 50 mg/kg p.o. qd × 5 × 4, on day 17) was 0.59 (17), the Mortality [1, 21] was 0/5 and the BW loss [1, 21] was −1.0 (4) g. The “T/C Min” value ([1]; Erlotinib 100 mg/kg p.o. qd × 5 × 4, on day 17) was 0.50 (17).
Work on `O=C1NC(=O)[C@@H](c2cn3c4c(cccc24)CCC3)[C@@H]1c1c[nH]c2ccccc12` (single isomer, unassigned) [Agent A] yielded an IC50 [4, 19] of 0.3 µM, an IC50 ([5]; HT-29, 72 h, HT29, 72 h, single agents and fixed-ratio combination, read-out: IC50) of 0.179 µM and an IC50 ([5]; HT-29, HT29 cells, predicted value used to set the ratio, read-out: IC50, predicted) of 0.15 µM. For the same compound, the tolerability [6] was “well-tolerated”, the “effects on body weight gain” value ([6]; oral gavage once daily for 21 days, all cohorts) was “no adverse effects on body weight gain” and the Mortality ([1]; Agent A 300 mg/kg p.o. qd × 5 × 4) was 0/5. For the same compound, the “T/C Min” value ([1]; Agent A 300 mg/kg p.o. qd × 5 × 4, on day 17) was 0.52 (17), the Mortality [2, 22] was 0/5 and the “T/C Min” value ([2]; Agent A 300 mg/kg p.o. qd × 5 × 2, on day 4) was 0.50 (4). For the same compound, the BW loss [2, 22] was −1.7 (21) g, the “T/C Min” value [7, 23] was 0.63 (10) and the c-Met activity [8] was “inhibit c-Met activity”. The c-Met activity [9] was “inhibit c-Met activity”, the Mortality [10, 22] was 0/5 and the BW loss [10, 23] was −1.3 (10) g. The “T/C Min” value ([10]; Agent A 300 mg/kg p.o. qd × 5 × 2, on day 15) was 0.61 (15), the IC50 [3, 24] was 0.15 µM and the IC50 [11, 25] was 0.875 µM. For the same compound, the IC50 [11, 26] was 1 µM and the IC50 ([11]; PC-3, 72 h, single agents and fixed-ratio combination) was 0.553 µM.
`O=C1NC(=O)[C@@H](c2cn3c4c(cccc24)CCC3)[C@@H]1c1ccc(O)cc1` (racemic) [Example 72, (±)-Trans-3-(5,6-dihydro-4H-pyrrolo[3,2,1-ij]quinolin-1-yl)-4-(4-hydroxyphenyl)pyrrolidine-2,5-dione] gave a melting point of 105 to 107 °C.
With `CC(=O)O[C@@]12CO[C@@H]1C[C@H](O)[C@@]1(C)C(=O)[C@H](O)C3=C(C)[C@@H](OC(=O)[C@H](O)[C@@H](NC(=O)OC(C)(C)C)c4ccccc4)C[C@@](O)([C@@H](OC(=O)c4ccccc4)[C@H]21)C3(C)C` [Docetaxel, docetaxel] the “Combination Conclusion” value [12] was “Synergism”, the “Combination Index Values at ED50” value [12] was 0.7 and the “Combination Conclusion” value [13] was “Synergism”. The “Combination Index Values at ED50” value [13] was 0.7, the “T/C Min” value ([7]; Docetaxel 7.5 mg/kg i.v. single, on day 17) was 0.46 (17) and the “T/C Min” value ([7]; Docetaxel 15 mg/kg i.v. single, on day 17) was 0.40 (17). The Mortality ([10]; Docetaxel 7.5 mg/kg i.v. single) was 0/5, the “T/C Min” value ([10]; Docetaxel 7.5 mg/kg i.v. single, on day 15) was 0.63 (15) and the Mortality ([10]; Docetaxel 15 mg/kg i.v. single) was 0/5. The “T/C Min” value ([10]; Docetaxel 15 mg/kg i.v. single, on day 7) was 0.68 (7), the IC50 ([3]; Homo sapiens, MIA PaCa-2, 72 h, MIA PaCa-2, 72 h, single agents and fixed-ratio combination) was 0.0051 µM and the IC50 [3, 24] was about 0.005 µM. It also gave an IC50 [11, 25] of 0.006 µM, an IC50 [11, 26] of about 0.005 µM and an IC50 ([11]; PC-3, 72 h, single agents and fixed-ratio combination, listed as Taxotere) of 0.0035 µM.
`O=C1NC(=O)C(c2cn3c4c(cccc24)CCC3)=C1c1ccc(OCc2ccccc2)cc1` [Example 66, 3-[4-(benzyloxy)phenyl]-4-(5,6-dihydro-4H-pyrrolo[3,2,1-ij]quinolin-1-yl)-1H-pyrrole-2,5-dione] gave a melting point of 262 to 265 °C.
For `O=C1NC(=O)[C@@H](c2cn3c4c(cccc24)CCC3)[C@@H]1c1ccc(F)cc1` (racemic) [Example 70, (±)-Trans-3-(5,6-dihydro-4H-pyrrolo[3,2,1-ij]quinolin-1-yl)-4-(4-fluorophenyl)pyrrolidine-2,5-dione], the melting point was 208 to 210 °C.
`COc1cccc([C@@H]2C(=O)NC(=O)[C@H]2c2cn3c4c(cccc24)CCC3)c1` (racemic) [Example 68, (±)-Trans-3-(5,6-dihydro-4H-pyrrolo[3,2,1-ij]quinolin-1-yl)-4-(3-methoxyphenyl)pyrrolidine-2,5-dione] gave a melting point of 87 to 91 °C.
For `CNC(=O)c1cc(Oc2ccc(NC(=O)Nc3ccc(Cl)c(C(F)(F)F)c3)cc2)ccn1` [sorafenib], the tolerability [6] was “well-tolerated”.
In the case of `O=c1[nH]cc(F)c(=O)[nH]1` [Example 5-FU, fluorouracil], the Mortality ([2]; 5-FU 10 mg/kg i.v. qd × 5 × 2) is reported as 0/5, the “T/C Min” value ([2]; 5-FU 10 mg/kg i.v. qd × 5 × 2, on day 14) is reported as 0.63 (14) and the BW loss ([2]; 5-FU 10 mg/kg i.v. qd × 5 × 2) is reported as −3.4 (21) g.
With `Nc1ccn([C@@H]2O[C@H](CO)[C@@H](O)C2(F)F)c(=O)n1` [Gemcitabine, gemcitabine] the “Combination Conclusion” value [14] was “Synergism”, the “Combination Index Values at ED50” value [14] was 0.6 and the “Combination Conclusion” value [15] was “Synergism”. The “Combination Index Values at ED50” value [15] was 0.2, the “Combination Conclusion” value [16] was “Synergism” and the “Combination Index Values at ED50” value [16] was 0.7.
`O=C1NC(=O)C(c2cn3c4c(cccc24)CCC3)=C1c1ccc(F)cc1` [Example 67, 3-(5,6-dihydro-4H-pyrrolo[3,2,1-ij]quinolin-1-yl)-4-(4-fluorophenyl)-1H-pyrrole-2,5-dione] gave a melting point of 234 to 235 °C.
